Target: human S1P1 (Homo sapiens (Human), UniProt P21453)
Test: S1P1 binding assay (33P-S1P radioligand competition, CHO cell membranes)
Settings: phosphate examples; read-out: S1P1 Binding
Summary of the method: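 Radioligand is 33P-S1P, competing for membranes from human S1P1-expressing CHO cells. Membranes resuspended in 50 mM HEPES pH 7.5, 100 mM NaCl, 1 mM MgCl2, 2 mM EDTA.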

human S1P1, sequence (P21453 whole entry): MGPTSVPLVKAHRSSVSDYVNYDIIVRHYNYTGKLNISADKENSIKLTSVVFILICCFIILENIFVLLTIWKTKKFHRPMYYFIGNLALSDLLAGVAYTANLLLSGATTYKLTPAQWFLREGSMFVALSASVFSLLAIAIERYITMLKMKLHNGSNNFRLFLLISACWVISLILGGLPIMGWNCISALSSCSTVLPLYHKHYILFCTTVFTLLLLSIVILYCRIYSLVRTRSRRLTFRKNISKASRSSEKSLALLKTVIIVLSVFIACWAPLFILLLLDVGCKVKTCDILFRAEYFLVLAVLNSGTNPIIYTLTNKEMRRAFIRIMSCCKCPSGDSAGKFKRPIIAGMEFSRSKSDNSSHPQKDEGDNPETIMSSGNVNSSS

Row | SMILES | IC50 [nM]
1 | CCCCOC[C@H]1CCc2cc([C@H]3CC[C@](N)(COP(=O)(O)O)C3)ccc2C1 [compound 446] | 10 to 100
2 | COCCCCC[C@@H]1CCc2cc(C3CCC(N)(COP(=O)(O)O)C3)ccc2C1 (single isomer, unassigned) [compound 599] | < 10
3 | N[C@]1(COP(=O)(O)O)CC[C@H](c2ccc3c(c2)CC[C@H](COc2ccccc2)C3)C1 [compound 459] | < 10
4 | CC(C)=CCCC[C@@H]1CCc2cc([C@H]3CC[C@](N)(COP(=O)(O)O)C3)ccc2C1 [compound 556] | 1000 to 10000
5 | CC(C)CSCC[C@@H]1CCc2cc([C@H]3CC[C@](N)(COP(=O)(O)O)C3)ccc2C1 [compound 538] | < 10
6 | CC(C)(C)CCSC[C@H]1CCc2cc([C@H]3CC[C@](N)(COP(=O)(O)O)C3)ccc2C1 [compound 518] | < 10
7 | COc1ccc(SC[C@@H]2CCc3cc([C@H]4CC[C@](N)(COP(=O)(O)O)C4)ccc3C2)cc1OC [compound 531] | 10 to 100
8 | N[C@]1(COP(=O)(O)O)CC[C@H](c2ccc3c(c2)CC[C@H](CS(=O)(=O)c2ccccc2)C3)C1 [compound 618] | 100 to 1000
9 | CCOc1cccc(C[C@H]2CCc3cc([C@H]4CC[C@](N)(COP(=O)(O)O)C4)ccc3C2)c1 [compound 548] | 10 to 100
10 | CC/C=C\COC[C@@H]1CCc2cc([C@H]3CC[C@](N)(COP(=O)(O)O)C3)ccc2C1 [compound 455] | < 10

Target: S1P1 (membranes prepared from S1P1/CHO cells) (Homo sapiens (Human), UniProt P21453)
Sequence (P21453 whole entry): as above
Test: Receptor [35S] GTPγS binding assay (S1P1 GTPγS)
Assay type: biochemical
Settings: phosphate examples; read-out: S1P1 GTPγS
Summary of the method: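 Agonist-stimulated [35S]GTPγS binding (0.2 nM final) to S1P1/CHO membranes, 3 μg protein/well, measured after 45 min at room temperature. Buffer contained 10 μM GDP, saponin and fatty-acid-free BSA at pH 7.5. Compounds tested as 11-point 3-fold series; bound label captured on filters, scintillation-counted, EC50 reported.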

Row | SMILES | EC50 [nM]
11 | CCCCOC[C@H]1CCc2cc([C@H]3CC[C@](N)(COP(=O)(O)O)C3)ccc2C1 [compound 446] | 100 to 1000
12 | COCCCCC[C@@H]1CCc2cc(C3CCC(N)(COP(=O)(O)O)C3)ccc2C1 (single isomer, unassigned) [compound 599] | < 10
13 | N[C@]1(COP(=O)(O)O)CC[C@H](c2ccc3c(c2)CC[C@H](COc2ccccc2)C3)C1 [compound 459] | 10 to 100
14 | CC(C)=CCCC[C@@H]1CCc2cc([C@H]3CC[C@](N)(COP(=O)(O)O)C3)ccc2C1 [compound 556] | < 10
15 | CC(C)CSCC[C@@H]1CCc2cc([C@H]3CC[C@](N)(COP(=O)(O)O)C3)ccc2C1 [compound 538] | < 10
16 | CC(C)(C)CCSC[C@H]1CCc2cc([C@H]3CC[C@](N)(COP(=O)(O)O)C3)ccc2C1 [compound 518] | < 10
17 | COc1ccc(SC[C@@H]2CCc3cc([C@H]4CC[C@](N)(COP(=O)(O)O)C4)ccc3C2)cc1OC [compound 531] | 10 to 100
18 | N[C@]1(COP(=O)(O)O)CC[C@H](c2ccc3c(c2)CC[C@H](CS(=O)(=O)c2ccccc2)C3)C1 [compound 618] | 100 to 1000
19 | CCOc1cccc(C[C@H]2CCc3cc([C@H]4CC[C@](N)(COP(=O)(O)O)C4)ccc3C2)c1 [compound 548] | 10 to 100
20 | CC/C=C\COC[C@@H]1CCc2cc([C@H]3CC[C@](N)(COP(=O)(O)O)C3)ccc2C1 [compound 455] | < 10

Target: S1P3 (membranes prepared from EDG3-Gal5-bla HEK293T cells) (Homo sapiens (Human), UniProt Q99500)
Sequence (Q99500 whole entry): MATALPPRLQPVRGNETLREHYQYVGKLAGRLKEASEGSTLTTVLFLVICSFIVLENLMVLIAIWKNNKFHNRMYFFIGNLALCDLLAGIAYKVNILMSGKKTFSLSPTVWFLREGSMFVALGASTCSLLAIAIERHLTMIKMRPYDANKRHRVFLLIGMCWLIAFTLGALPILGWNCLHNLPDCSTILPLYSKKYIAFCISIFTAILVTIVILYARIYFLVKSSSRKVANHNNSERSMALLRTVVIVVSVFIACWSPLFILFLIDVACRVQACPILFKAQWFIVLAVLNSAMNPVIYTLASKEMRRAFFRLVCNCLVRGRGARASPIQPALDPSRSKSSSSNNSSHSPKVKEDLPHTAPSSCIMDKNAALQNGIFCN
Test: Receptor [35S] GTPγS binding assay (S1P3 GTPγS)
Assay type: biochemical
Settings: phosphate examples; read-out: S1P3 GTPγS
Summary of the method: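 Membranes (3 μg protein/well) from S1P1/CHO cells or EDG3-Gal5-bla HEK293T cells (S1P3) were incubated 45 min at room temperature with 0.2 nM final [35S]GTPγS in HEPES pH 7.5 buffer with 10 μM GDP, MgCl2 and saponin. Bound label counted after filtration; EC50 from 11-point, 3-fold dilutions.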

Row | SMILES | EC50 [nM]
21 | CCCCOC[C@H]1CCc2cc([C@H]3CC[C@](N)(COP(=O)(O)O)C3)ccc2C1 [compound 446] | > 625
22 | COCCCCC[C@@H]1CCc2cc(C3CCC(N)(COP(=O)(O)O)C3)ccc2C1 (single isomer, unassigned) [compound 599] | > 625
23 | N[C@]1(COP(=O)(O)O)CC[C@H](c2ccc3c(c2)CC[C@H](COc2ccccc2)C3)C1 [compound 459] | > 625
24 | CC(C)=CCCC[C@@H]1CCc2cc([C@H]3CC[C@](N)(COP(=O)(O)O)C3)ccc2C1 [compound 556] | > 625
25 | CC(C)CSCC[C@@H]1CCc2cc([C@H]3CC[C@](N)(COP(=O)(O)O)C3)ccc2C1 [compound 538] | > 625
26 | CC(C)(C)CCSC[C@H]1CCc2cc([C@H]3CC[C@](N)(COP(=O)(O)O)C3)ccc2C1 [compound 518] | > 625
27 | COc1ccc(SC[C@@H]2CCc3cc([C@H]4CC[C@](N)(COP(=O)(O)O)C4)ccc3C2)cc1OC [compound 531] | > 625
28 | N[C@]1(COP(=O)(O)O)CC[C@H](c2ccc3c(c2)CC[C@H](CS(=O)(=O)c2ccccc2)C3)C1 [compound 618] | > 625
29 | CCOc1cccc(C[C@H]2CCc3cc([C@H]4CC[C@](N)(COP(=O)(O)O)C4)ccc3C2)c1 [compound 548] | > 625
30 | CC/C=C\COC[C@@H]1CCc2cc([C@H]3CC[C@](N)(COP(=O)(O)O)C3)ccc2C1 [compound 455] | > 625

Target: hS1P1/CHO cells (Homo sapiens (Human), UniProt P21453)
Sequence (P21453 whole entry): as the sequence (P21453 whole entry) above
Test: hS1P1 ERK phosphorylation (S1P1 pERK)
Assay type: cell-based
Settings: phosphate examples
Protocol: hS1P1 ERK Phosphorylation (S1P1 pERK)
hS1P1/CHO cells were plated into BD Amine 384-well plates the day before the assay. On the day of the assay, growth medium was removed and replaced with serum-free medium (Ham's F-12 Invitrogen) and incubated for 2 hours. Test compounds pre-diluted in HBSS (Gibco)/20 mM HEPES (Gibco) were transferred to the cell plates and incubated for 7 minutes at 37° C. Cells were lysed in lysis buffer (Perkin Elmer) and phospho-ERK was measured using the SureFire pERK kit (Perkin Elmer) as described by the manufacturer. Data was plotted as percentage activation of the test compound relative to the efficacy of 10 μM S1P.

Row | SMILES | EC50 [nM]
31 | CCCCOC[C@H]1CCc2cc([C@H]3CC[C@](N)(COP(=O)(O)O)C3)ccc2C1 [compound 446] | < 10
32 | COCCCCC[C@@H]1CCc2cc(C3CCC(N)(COP(=O)(O)O)C3)ccc2C1 (single isomer, unassigned) [compound 599] | < 10
33 | N[C@]1(COP(=O)(O)O)CC[C@H](c2ccc3c(c2)CC[C@H](COc2ccccc2)C3)C1 [compound 459] | < 10
34 | CC(C)=CCCC[C@@H]1CCc2cc([C@H]3CC[C@](N)(COP(=O)(O)O)C3)ccc2C1 [compound 556] | < 10
35 | CC(C)CSCC[C@@H]1CCc2cc([C@H]3CC[C@](N)(COP(=O)(O)O)C3)ccc2C1 [compound 538] | < 10
36 | CC(C)(C)CCSC[C@H]1CCc2cc([C@H]3CC[C@](N)(COP(=O)(O)O)C3)ccc2C1 [compound 518] | < 10
37 | COc1ccc(SC[C@@H]2CCc3cc([C@H]4CC[C@](N)(COP(=O)(O)O)C4)ccc3C2)cc1OC [compound 531] | 10 to 100
38 | N[C@]1(COP(=O)(O)O)CC[C@H](c2ccc3c(c2)CC[C@H](CS(=O)(=O)c2ccccc2)C3)C1 [compound 618] | < 10
39 | CCOc1cccc(C[C@H]2CCc3cc([C@H]4CC[C@](N)(COP(=O)(O)O)C4)ccc3C2)c1 [compound 548] | < 10
40 | CC/C=C\COC[C@@H]1CCc2cc([C@H]3CC[C@](N)(COP(=O)(O)O)C3)ccc2C1 [compound 455] | < 10
